In ChEMBL document CHEMBL1201862, “PubChem BioAssay data set” (2004):
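Five compound concentrations were applied to cells in 96-well plates for 48 hours; endpoints were derived by simple linear interpolation of the resulting dose-response curve. GI50 marks 50% less growth.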 Activity calls are given as the source filed them. Rule as the data show it: active = GI50 up to about 1.1 µM and inactive = higher.

Columns and labels:
Experiment in all cases: inhibition of tumour cell growth, NCI panel, 48 h
DU-145 = system: DU-145
HCT-116 = system: HCT-116
HCT-15 = system: HCT-15
HOP-62 = system: HOP-62
HT-29 = system: HT-29
Hs-578T = system: Hs-578T
LOX IMVI = system: LOX IMVI
M14 = system: M14
MCF7 = system: MCF7
MDA-MB-231 = system: MDA-MB-231
NCI-H23 = system: NCI-H23
OVCAR-3 = system: OVCAR-3
OVCAR-5 = system: OVCAR-5
SK-MEL-5 = system: SK-MEL-5
SNB-19 = system: SNB-19
SR = system: SR
TK-10 = system: TK-10
U-251 = system: U-251
NCI-H522 = system: NCI-H522

Measured: GI50

CC1(C)NC(C(=O)c2ccccc2)=[N+]([O-])C1(O)c1ccccc1 (stereo not drawn)
inactive: DU-145 > 100 µM | HCT-116 74.5 µM | HOP-62 > 100 µM | HT-29 > 100 µM | Hs-578T > 100 µM | LOX IMVI > 100 µM | M14 > 100 µM | MCF7 > 100 µM | MDA-MB-231 > 100 µM | NCI-H23 > 100 µM | OVCAR-3 95.3 µM | OVCAR-5 > 100 µM | SK-MEL-5 93.3 µM | SNB-19 > 100 µM | SR > 100 µM | TK-10 > 100 µM | U-251 > 100 µM
81.3 µM: HCT-15

Nc1nc2sc3ccccc3c(=O)n2n1
inactive: HCT-116 > 100 µM | HOP-62 > 100 µM | HT-29 > 100 µM | LOX IMVI > 100 µM | M14 > 100 µM | NCI-H23 > 100 µM | OVCAR-3 > 100 µM | OVCAR-5 > 100 µM | SK-MEL-5 > 100 µM | SNB-19 > 100 µM | SR > 100 µM | TK-10 > 100 µM | U-251 > 100 µM
> 100 µM: HCT-15

Clc1ccc(-c2c(C3=NCCN3)nnn2-c2ccc(Cl)cc2)cc1
30.1 µM: HCT-15
inactive: HCT-116 15 µM | HOP-62 53.1 µM | HT-29 13.9 µM | LOX IMVI 39.4 µM | M14 17.1 µM | NCI-H23 35.2 µM | NCI-H522 16 µM | OVCAR-3 48.9 µM | OVCAR-5 33 µM | SK-MEL-5 16.8 µM | SNB-19 29.4 µM | SR 13.4 µM | TK-10 19.7 µM | U-251 20.5 µM

Cc1cccc(Nc2cnc(N)nc2N)c1
inactive: DU-145 > 100 µM | HCT-116 > 100 µM | HOP-62 > 100 µM | HT-29 > 100 µM | LOX IMVI > 100 µM | M14 > 100 µM | MCF7 > 100 µM | MDA-MB-231 > 100 µM | NCI-H23 > 100 µM | NCI-H522 > 100 µM | OVCAR-3 > 100 µM | SK-MEL-5 > 100 µM | SNB-19 > 100 µM | TK-10 > 100 µM | U-251 > 100 µM
> 100 µM: HCT-15

O=C(O)/C=C/c1ccc(O)c(O)c1 [CAFFEIC ACID]
> 100 µM: HCT-15
inactive: DU-145 > 100 µM | HCT-116 > 100 µM | HOP-62 > 100 µM | HT-29 > 100 µM | LOX IMVI > 100 µM | M14 > 100 µM | NCI-H23 > 100 µM | NCI-H522 97.5 µM | OVCAR-3 > 100 µM | OVCAR-5 > 100 µM | SK-MEL-5 > 100 µM | SNB-19 > 100 µM | TK-10 > 100 µM | U-251 > 100 µM

Cc1c2nc3ccccc3sc-2cc(=O)c1C
inactive: HCT-116 12.7 µM | HOP-62 > 100 µM | HT-29 > 77.3 µM | LOX IMVI 29.8 µM | M14 55.3 µM | NCI-H23 10.3 µM | NCI-H522 > 57.3 µM | OVCAR-3 35.3 µM | OVCAR-5 > 95.5 µM | SK-MEL-5 34.8 µM | SNB-19 > 100 µM | SR > 10 µM | TK-10 > 100 µM | U-251 47.5 µM
12.9 µM: HCT-15

CC/C(=N/O)c1ccc2[nH]c3c(C)cc([N+](=O)[O-])c(C)c3c2c1
inactive: HCT-116 41.8 µM | HOP-62 44 µM | HT-29 37.4 µM | LOX IMVI 54.1 µM | M14 23.6 µM | NCI-H23 82.4 µM | NCI-H522 22.9 µM | OVCAR-3 36.1 µM | OVCAR-5 > 100 µM | SK-MEL-5 57.3 µM | SNB-19 > 100 µM | SR 24.4 µM | TK-10 15.2 µM
51.1 µM: HCT-15

O=C(NOC(=O)c1ccc([N+](=O)[O-])cc1)c1ccc(Cl)cc1
inactive: HCT-116 > 100 µM | HOP-62 > 100 µM | HT-29 > 100 µM | LOX IMVI 6.87 µM | M14 > 100 µM | NCI-H23 > 100 µM | NCI-H522 27 µM | OVCAR-5 > 100 µM | SK-MEL-5 65.2 µM | SNB-19 > 100 µM | SR > 100 µM | U-251 76.7 µM
35.7 µM: HCT-15

CCN(CC)C(=O)c1cccc2c(OC)ccc(OC)c12
> 100 µM: HCT-15
inactive: HCT-116 > 100 µM | HOP-62 > 100 µM | HT-29 > 100 µM | LOX IMVI > 100 µM | M14 > 100 µM | NCI-H23 > 100 µM | NCI-H522 > 100 µM | OVCAR-3 > 100 µM | OVCAR-5 > 100 µM | SK-MEL-5 > 100 µM | SNB-19 > 100 µM | SR > 100 µM | TK-10 > 100 µM | U-251 > 100 µM

CCOC(=O)/C(=C/c1ccc(C(=O)OC)cc1)N(CC)CC
inactive: HCT-116 37.2 µM | HOP-62 51.6 µM | LOX IMVI 63.2 µM | M14 40.2 µM | NCI-H23 36.6 µM | NCI-H522 37.8 µM | OVCAR-3 22.4 µM | OVCAR-5 > 100 µM | SK-MEL-5 37.7 µM | SNB-19 54.5 µM | SR 47.9 µM | TK-10 71.6 µM | U-251 42 µM
33.3 µM: HCT-15

C/C(=C\Cc1cc(O)ccc1O)CCc1c(C)c(O)c(O)c(C=O)c1C [PANICEIN C]
inactive: HCT-116 19.1 µM | HT-29 29.2 µM | M14 25.5 µM | NCI-H23 18.4 µM | NCI-H522 5.24 µM | OVCAR-3 21.2 µM | SK-MEL-5 15.5 µM | SNB-19 35.2 µM | SR 7.38 µM | TK-10 48.2 µM | U-251 18.6 µM
31.4 µM: HCT-15

CCN(CC)CCOc1ccc(C(O)(Cc2ccc(OC)cc2)c2ccccc2)cc1 (stereo not drawn)
inactive: HCT-116 13.8 µM | HOP-62 15.9 µM | HT-29 3.83 µM | LOX IMVI 14.3 µM | M14 14.3 µM | NCI-H23 17 µM | NCI-H522 20.5 µM | OVCAR-3 34.1 µM | OVCAR-5 20 µM | SK-MEL-5 13.2 µM | SNB-19 24.6 µM | SR 10.7 µM | TK-10 28.7 µM | U-251 16.2 µM
19.1 µM: HCT-15

CC#CC(OCC)(OCC)OCC
inactive: HCT-116 > 100 µM | HOP-62 > 100 µM | HT-29 > 100 µM | LOX IMVI 18.9 µM | M14 > 100 µM | NCI-H23 > 100 µM | NCI-H522 53.2 µM | OVCAR-3 > 100 µM | OVCAR-5 > 100 µM | SK-MEL-5 > 100 µM | SNB-19 > 100 µM | SR > 100 µM | TK-10 > 100 µM | U-251 > 100 µM
39.1 µM: HCT-15

COc1cccc(-c2cc(O)c3cc4c(cc3n2)OCO4)c1
active: HCT-116 0.0902 µM | HOP-62 0.116 µM | HT-29 0.144 µM | LOX IMVI 0.0857 µM | M14 0.0463 µM | NCI-H23 0.287 µM | NCI-H522 0.0238 µM | OVCAR-3 0.038 µM | OVCAR-5 0.251 µM | SK-MEL-5 0.0352 µM | SNB-19 0.109 µM | SR 0.169 µM | TK-10 0.662 µM | U-251 0.121 µM
0.118 µM: HCT-15

COc1ccc(CC2NCCc3cc(OC)c(OC)cc32)cc1 (stereo not drawn)
inactive: HCT-116 > 100 µM | HOP-62 > 100 µM | HT-29 > 100 µM | LOX IMVI > 100 µM | M14 > 100 µM | NCI-H23 > 100 µM | NCI-H522 > 100 µM | OVCAR-3 > 100 µM | OVCAR-5 > 100 µM | SK-MEL-5 > 100 µM | SNB-19 > 100 µM | SR > 100 µM | TK-10 > 100 µM | U-251 > 100 µM
> 100 µM: HCT-15

CS(=O)(=O)NNS(=O)(=O)c1ccccc1
> 100 µM: HCT-15
inactive: HCT-116 > 100 µM | HOP-62 > 100 µM | HT-29 > 100 µM | LOX IMVI > 100 µM | M14 > 100 µM | NCI-H23 > 100 µM | NCI-H522 > 100 µM | SK-MEL-5 > 100 µM | SNB-19 > 100 µM | SR > 100 µM | TK-10 > 100 µM | U-251 > 100 µM

CCCCCCCCCCCCCC(=O)O[C@H]1CC[C@H](NC(=O)[C@H](OC)[C@H](O)[C@@H](O)[C@H](O)/C=C/C(C)C)C(=O)N(C)C1 [BENGAMIDE B]
0.028 µM: HCT-15
active: HCT-116 0.00247 µM | HOP-62 0.00809 µM | HT-29 0.00479 µM | LOX IMVI 0.00216 µM | M14 0.0128 µM | NCI-H23 0.00977 µM | NCI-H522 0.00577 µM | OVCAR-3 0.00643 µM | SK-MEL-5 0.0199 µM | SNB-19 0.008 µM | SR 0.0021 µM | TK-10 0.179 µM | U-251 0.00286 µM
inactive: OVCAR-5 4.65 µM

Nc1ccc2nc(NCc3ccc(F)cc3)cnc2c1
> 100 µM: HCT-15
inactive: HCT-116 > 100 µM | HOP-62 > 100 µM | HT-29 > 100 µM | LOX IMVI > 100 µM | M14 > 100 µM | NCI-H23 > 100 µM | NCI-H522 > 100 µM | OVCAR-3 > 100 µM | OVCAR-5 > 100 µM | SK-MEL-5 > 100 µM | SNB-19 44.5 µM | SR 66.7 µM | TK-10 > 100 µM | U-251 > 100 µM

C[Si](C)(C)/C(Br)=C\CCN1C(=O)CCC1=O
> 100 µM: HCT-15
inactive: HCT-116 > 100 µM | HOP-62 > 100 µM | HT-29 > 100 µM | LOX IMVI > 100 µM | M14 > 100 µM | NCI-H23 > 100 µM | OVCAR-3 > 100 µM | OVCAR-5 > 100 µM | SK-MEL-5 > 100 µM | SNB-19 > 100 µM | SR > 100 µM | TK-10 > 100 µM | U-251 > 100 µM
